Data on three compounds can be found in article PMC4336331, “Novel Receptor-Derived Cyclopeptides to Treat Heart Failure Caused by Anti-β1-Adrenoceptor Antibodies in a Human-Analogous Rat Model” (PLoS ONE, 2015).

Each structure is given as a SMILES string. Peptide text beside a SMILES is read from it.

Assay [1] has as its system anti-β1EC2-induced heart failure (β1EC2/GST-FP-immunised rats). The assay is described as follows: Left heart catheterisation (haemodynamics), prevention-study. The assay is classed as in vivo, Lewis/CrlBR rats. The following applies: LV catheterisation month 16, mean ±SEM. On the procedure:
In brief, n = 76 two months old Lewis/CrlBR rats were either s.c. immunised with 50 μg β1EC2/GST-FP, or n = 38 rats were control-injected with 0.9% NaCl (t = 0). To maintain high anti-β1EC2-titers, all immunised rats were boosted with β1EC2/GST-FP (or 0.9% NaCl) every month over 20 months as previously described. Application of the different linear or cyclic β1-AR peptides (corresponding to the primary AA-sequence of either the first (β1EC1) or the 2nd extra-cellular β1-AR loop (β1EC2)) or the β1-receptor blocker bisoprolol was initiated either 6 weeks after the 1st immunisation (i.e. 15 days after the 1st boost, prevention-study), or 8.5 months after the 1st immunisation (therapy-study).

The subject of assay [2] is anti-β1EC2-induced β1-AR/cAMP signaling in HEKβ1-cells. The assay can be described thus: FRET cAMP assay (Epac1-camps), blockade of anti-β1EC2-induced signals. In kind it is cell-based, human. The following applies: HEKβ1-cells with Epac1-camps FRET-sensor; IgG pre-incubated with peptide (Fig. 1F). How it is done: The effects of anti-β1EC2 on β1AR-mediated intracellular cAMP-production were assessed by measuring fluorescence resonance energy transfer (FRET) in HEKβ1-cells transiently transfected with a FRET-sensor for cAMP, Epac1-camps. The sensor consists of the cAMP-binding protein Epac1 flanked by enhanced cyan or yellow fluorescent protein. […] IgG-preparations were added to the cells at 0.13 μg/μl protein concentration; 2μM (-)isoproterenol (Sigma) was used as a reference to determine the maximal cAMP-response. To test the blocking-efficacy of β1EC2-CP on anti-β1EC2-induced adrenergic signaling, the different IgG-preparations were pre-incubated with β1EC2-CP (20 μg/μl) for 6 h at 4 °C; for pharmacological blockade of anti-β1EC2-induced signals we utilised 5.0μM bisoprolol.
(D) Immunostaining experiments with rat anti- β1EC2 (1:100) using HEK-cells stably expressing β1-ARs (HEK β1) or not (wild type; HEK WT). IgG was prepared from anti- β1EC2-positive rats or 0.9% NaCl-injected control rats. Amino-terminal β1AR-specific rabbit anti-bodies (1:250) served as positive controls. […] HEK β1-cells were transfected with the cAMP-sensor Epac1-camps, which reacts to cAMP-binding with a reduction in fluorescence resonance energy transfer (FRET) between its fluorophores cyan (CFP) and yellow fluorescent protein (YFP). […] Representative FRET-ratio traces of 1/5 experiments are shown. Values are given in % of maximal cAMP-response achieved with 0.3μM (-)isoproterenol (Iso).
(Cyclic AMP is a second messenger, typically raised through Gs and lowered through Gi signalling.)

Where [3] appears, read: immunised anti-β1EC2-positive rats, from 6 weeks after 1st immunisation EC2-CP 1.0 mg/kg i.v. every 4 weeks or bisoprolol 15 mg/kg/day orally over 12 months.
[4] abbreviates: non-immunised 0.9% NaCl-injected rats, EC2-CP 1.0 mg/kg i.v. every 4 weeks or bisoprolol 15 mg/kg/day orally over 12 months.

Turning to `CC(C)NCC(O)COc1ccc(COCCOC(C)C)cc1` (centres unmarked) [bisoprolol, reference compound], in assay [1] (setting [3]), the “+dP/dt (contractilility)” value is recorded as 6768 ±106 mmHg/s, the “-dP/dt (relaxation)” value worked out at 5532 ±78 mmHg/s, the “HF (heart frequence)” value turned out to be 178 ±9 bpm and the “LVEDP (LV end-diastolic pressure)” value was determined as 8.3 ±0.6 mmHg. Also, the “LVSP (maximal systolic LV-pressure)” value in assay [1] (setting [3]) stood at 106 ±3 mmHg. Moreover, in assay [1] (setting [4]), the “+dP/dt (contractilility)” value worked out at 7012 ±419 mmHg/s, the “-dP/dt (relaxation)” value came to 5619 ±155 mmHg/s, the “HF (heart frequence)” value came out at 173 ±17 bpm and the “LVEDP (LV end-diastolic pressure)” value came to 10.6 ±1.5 mmHg. Also, the “LVSP (maximal systolic LV-pressure)” value in assay [1] (setting [4]) is recorded as 107 ±11 mmHg.

Turning to `CC(C)[C@@H]1NC(=O)[C@H](Cc2ccccc2)NC(=O)[C@H](CC(=O)O)NC(=O)[C@H](CS)NC(=O)[C@H](CS)NC(=O)[C@H](CCCCN)NC(=O)[C@@H]2CCCN2C(=O)[C@H](CC(=O)O)NC(=O)[C@H](CC(N)=O)NC(=O)[C@H](Cc2ccc(O)cc2)NC(=O)[C@H](CS)NC(=O)[C@H](CCCNC(=N)N)NC(=O)[C@H](CCCNC(=N)N)NC(=O)[C@H](C)NC(=O)[C@H](CCC(=O)O)NC(=O)[C@H](CC(=O)O)NC(=O)[C@H](CO)NC(=O)[C@H](CCC(=O)O)NC(=O)[C@H](C)NC(=O)[C@H](CCCNC(=N)N)NC(=O)[C@H](C)NC(=O)[C@H](CCC(N)=O)NC(=O)CNC(=O)[C@H](CCCNC(=N)N)NC(=O)[C@H](CC(N)=O)NC(=O)[C@H]([C@@H](C)O)NC1=O` [β1EC2-CP] (cyclo(AESDEARRCYNDPKCCDFVTNRGQAR)), the “blockade of anti-β1EC2-induced cAMP-signals, in words” value in assay [2] is “inhibited”. Also, in assay [1] (setting [3]), the “-dP/dt (relaxation)” value is 5887 ±93 mmHg/s, the “HF (heart frequence)” value came to 226 ±5 bpm, the “LVEDP (LV end-diastolic pressure)” value worked out at 10.4 ±0.6 mmHg and the “LVSP (maximal systolic LV-pressure)” value is recorded as 127 ±4 mmHg. Besides, in assay [1] (setting [4]), the “-dP/dt (relaxation)” value was found to be 5986 ±288 mmHg/s, the “HF (heart frequence)” value is reported as 232 ±7 bpm, the “LVEDP (LV end-diastolic pressure)” value is reported as 10.1 ±1.4 mmHg and the “LVSP (maximal systolic LV-pressure)” value stood at 135 ±7 mmHg.

As for `CC(C)[C@H](NC(=O)[C@H](Cc1ccccc1)NC(=O)[C@H](CC(=O)O)NC(=O)[C@H](CS)NC(=O)[C@H](CS)NC(=O)[C@H](CCCCN)NC(=O)[C@@H]1CCCN1C(=O)[C@H](CC(=O)O)NC(=O)[C@H](CC(N)=O)NC(=O)[C@H](Cc1ccc(O)cc1)NC(=O)[C@H](CS)NC(=O)[C@H](CCCNC(=N)N)NC(=O)[C@H](CCCNC(=N)N)NC(=O)[C@H](C)NC(=O)[C@H](CCC(=O)O)NC(=O)[C@H](CC(=O)O)NC(=O)[C@H](CO)NC(=O)[C@H](CCC(=O)O)NC(=O)[C@H](C)NC(=O)[C@H](CCCNC(=N)N)NC(=O)[C@H](C)N)C(=O)N[C@H](C(=O)N[C@@H](CC(N)=O)C(=O)N[C@@H](CCCNC(=N)N)C(=O)NCC(N)=O)[C@@H](C)O` [β1EC2-Lin] (H-ARAESDEARRCYNDPKCCDFVTNRG-NH2; N-terminus and C-terminus assumed), in assay [2], the “blockade of anti-β1EC2-induced cAMP-signals, in words” value is reported as “inhibited”.
